Twelve molecules from PubChem BioAssay (NCI) can be followed below.

Structures are written as SMILES.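 Each compound was tested at five concentrations against cells in 96-well plates for 48 hours. GI50: concentration for 50% inhibition of growth. TGI: concentration producing complete growth inhibition.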

Test systems include HCT-15 colon; MOLT-4 leukemia; NCI-H522 lung; MALME-3M melanoma; OVCAR-4 ovarian; CCRF-CEM leukemia; HT29 colon; SK-MEL-5 melanoma; OVCAR-5 ovarian; U251 CNS.
What all share (experiment): NCI anticancer screen, dose series, 48 h

As for `COC(=O)c1ccccc1NC(=O)C(=O)NNC(=O)c1ccncc1`, the TGI with HCT-15 colon, in the test on MOLT-4 leukemia, with NCI-H522 lung, with MALME-3M melanoma, in the test with OVCAR-4 ovarian and in the test on CCRF-CEM leukemia was more than 100 µM in each case. Besides, the TGI in the test on HT29 colon and in the test with SK-MEL-5 melanoma was more than 100 µM each time.
On to `CC[O-].CC[O-].O=S(=O)([O-])c1ccc([O-])c2ncccc12.O=S(=O)([O-])c1ccc([O-])c2ncccc12.[Ti+4]`, for which the GI50 with OVCAR-5 ovarian is 33.5 µM; in the test on HCT-15 colon, more than 100 µM; in the test with MOLT-4 leukemia, 37.2 µM; with NCI-H522 lung it was 32.8 µM; in the test on MALME-3M melanoma, more than 100 µM; in the test with OVCAR-4 ovarian, 52.9 µM. Further, the figures for the GI50 in the test on CCRF-CEM leukemia, in the test on HT29 colon and in the test on SK-MEL-5 melanoma were 53.3 µM, 52.8 µM and more than 100 µM, respectively. In addition, the TGI in the test with OVCAR-5 ovarian, in the test with HCT-15 colon, in the test on MOLT-4 leukemia, with NCI-H522 lung, in the test with MALME-3M melanoma and with OVCAR-4 ovarian was more than 100 µM in each case. In addition, the TGI in the test on CCRF-CEM leukemia, in the test with HT29 colon and in the test on SK-MEL-5 melanoma was more than 100 µM throughout.
Regarding `CC(=O)NC(CCCCNC(=O)NCCCl)C(=O)NCc1ccccc1` (stereo not drawn), the TGI in the test with HCT-15 colon, in the test on MOLT-4 leukemia, with U251 CNS, in the test on NCI-H522 lung, in the test on MALME-3M melanoma and with OVCAR-4 ovarian was more than 100 µM throughout. Further, the TGI in the test with CCRF-CEM leukemia, with HT29 colon and with SK-MEL-5 melanoma was more than 100 µM each time.
Regarding `C/C(=N\N(c1ccccc1)c1ccccc1)c1c(O)cc(C)oc1=O`, the TGI in the test with HCT-15 colon, in the test with MOLT-4 leukemia, in the test on U251 CNS, with NCI-H522 lung, in the test with MALME-3M melanoma and in the test on OVCAR-4 ovarian was more than 100 µM each time. Moreover, the TGI in the test on CCRF-CEM leukemia and with HT29 colon was more than 100 µM throughout.
For `CCOC(=O)C1(C#N)C(c2ccccc2)CC(O)(c2ccc(Cl)cc2)C(C(=O)c2ccc(Cl)cc2)C1c1ccccc1` (stereo not drawn), the TGI in the test on OVCAR-5 ovarian, in the test on HCT-15 colon, with MOLT-4 leukemia, with NCI-H522 lung, in the test on MALME-3M melanoma and with OVCAR-4 ovarian was more than 100 µM throughout. Moreover, the TGI in the test with CCRF-CEM leukemia, in the test with HT29 colon and in the test on SK-MEL-5 melanoma was more than 100 µM each time.
`Cc1cc(C)c(C(=O)c2no[n+]([O-])c2C(=O)c2c(C)cc(C)c(Br)c2C)c(C)c1Br`: the TGI in the test with OVCAR-5 ovarian was 33 µM; in the test on HCT-15 colon, 30 µM; in the test with MOLT-4 leukemia, 20.2 µM; in the test with U251 CNS, 25 µM; with NCI-H522 lung, 23.4 µM; in the test with MALME-3M melanoma it was 29.9 µM. The figures for the TGI in the test on OVCAR-4 ovarian, in the test on CCRF-CEM leukemia and with HT29 colon were 50 µM, 8.88 µM and 27.4 µM, respectively.
Consider `COc1ccc(/C=C2\CCCC(C(NO)c3ccc(OC)cc3)C2=NO)cc1` (stereo not drawn), for which the TGI with HCT-15 colon was more than 100 µM; in the test on MOLT-4 leukemia, 80.5 µM; in the test with U251 CNS, more than 100 µM; in the test with NCI-H522 lung, 82 µM; in the test with MALME-3M melanoma, more than 100 µM; in the test with OVCAR-4 ovarian it was more than 100 µM. In addition, the TGI in the test on CCRF-CEM leukemia was more than 100 µM; in the test with HT29 colon, more than 100 µM; in the test on SK-MEL-5 melanoma it was 47.6 µM.
`CCOC(=O)c1cc(/C=C/C(C)=C/C(=O)OC)oc1C`: the TGI with OVCAR-5 ovarian, in the test with HCT-15 colon, in the test with MOLT-4 leukemia, with U251 CNS, in the test on NCI-H522 lung and in the test with MALME-3M melanoma was more than 100 µM throughout. For the same molecule, the TGI in the test on OVCAR-4 ovarian, in the test on CCRF-CEM leukemia and in the test with HT29 colon was more than 100 µM in each case.
Consider `Cc1cc(S(=O)(=O)NC#N)c(S/C(=N\Nc2ccc([N+](=O)[O-])cc2)c2ccc(Cl)cc2)cc1Cl`, for which the GI50 with OVCAR-5 ovarian was 44 µM; in the test with HCT-15 colon, 11.6 µM; with MOLT-4 leukemia, 19.5 µM; in the test with U251 CNS, 48.2 µM; in the test with NCI-H522 lung it was 21.8 µM; in the test with MALME-3M melanoma, 24.4 µM. The results for the GI50 in the test with OVCAR-4 ovarian, with CCRF-CEM leukemia and in the test with SK-MEL-5 melanoma were 20.9 µM, 32.1 µM and 18.5 µM, respectively. Also, the TGI is more than 100 µM in the test on OVCAR-5 ovarian; 59.7 µM in the test with HCT-15 colon; more than 100 µM in the test on MOLT-4 leukemia; more than 100 µM with U251 CNS; 89.5 µM with NCI-H522 lung; 96.3 µM in the test on MALME-3M melanoma. In addition, the TGI in the test with OVCAR-4 ovarian was 75 µM; with CCRF-CEM leukemia it was more than 100 µM; with SK-MEL-5 melanoma, 42.3 µM.
In the case of `CC1=C(C(=O)Nc2cccc(Cl)c2)C(c2ccccc2F)C(C(=O)Nc2cccc(Cl)c2)=C(C)N1`, the TGI in the test with OVCAR-5 ovarian was 37.2 µM; with MOLT-4 leukemia, 14.7 µM; in the test on U251 CNS, 37.7 µM; with NCI-H522 lung, 23.1 µM; with MALME-3M melanoma, 31.8 µM; with OVCAR-4 ovarian it was 21.3 µM. In addition, the results for the TGI in the test with CCRF-CEM leukemia, in the test with HT29 colon and in the test on SK-MEL-5 melanoma were 26.2 µM, 15.5 µM and 29.5 µM, respectively.
Take `CN(C)/N=C(/c1nc2ccc(Cl)cc2[nH]c1=O)C(O)c1ccc(C(O)/C(=N\N(C)C)c2nc3ccc(Cl)cc3[nH]c2=O)cc1` (stereo not drawn): the TGI in the test with OVCAR-5 ovarian, in the test on MOLT-4 leukemia, with NCI-H522 lung, in the test with MALME-3M melanoma, with OVCAR-4 ovarian and in the test on CCRF-CEM leukemia was more than 100 µM throughout. The TGI with HT29 colon and in the test with SK-MEL-5 melanoma was more than 100 µM throughout.
Turning to `NCCCCNc1ccc2c(=O)[nH][nH]c(=O)c2c1`, the TGI in the test with OVCAR-5 ovarian, in the test with MOLT-4 leukemia, with U251 CNS, in the test on NCI-H522 lung, in the test with MALME-3M melanoma and with OVCAR-4 ovarian was more than 100 µM throughout. Further, the TGI in the test on CCRF-CEM leukemia, in the test on HT29 colon and in the test with SK-MEL-5 melanoma was more than 100 µM in each case.
